Measurements: PMC6934184, “Selective DNA-PKcs inhibition extends the therapeutic index of localized radiotherapy and chemotherapy” (The Journal of Clinical Investigation, 2019)

Biological target: T1, NUAK2 (Homo sapiens, UniProt Q9H093)
T1 construct: purchased Thermo Fisher Scientific (Life Technologies) SelectScreen
Assay: SelectScreen LanthaScreen
Format: binding
Conditions: 1 µM
Experimental: The in vitro kinase selectivity of NU5455 was determined using the SelectScreen Broad Assay Panel (Thermo Fisher Scientific) involving activity and binding assays (Supplemental Table 1). […] Class IA PI3Ks were measured using the p85α subunit.
Kinase [ATP] % Assay Kinase [ATP] % Assay Kinase [ATP] % Assay Kinase [ATP] % Assay […]
NEK2 Km app 17.8 Z CSNK1G3 (CK1 gamma 3) Km app 4.2 Z NUAK2 n/a 1.0 L KIT T670E n/a -2.8 L […]
SGK (SGK1) Km app 8.5 Z MAP4K2 (GCK) Km app 2.7 Z TLK2 n/a -0.3 L STK38 (NDR) n/a -5.9 L
MERTK (cMER) Km app 8.3 Z CDK2/cyclin A Km app 2.7 Z TGFBR1 (ALK5) n/a -0.4 L MATK (HYL) Km app -6.3 Z
FYN Km app 8.3 Z EPHA1 Km app 2.7 Z CLK3 Km app -0.5 Z ABL1 E255K Km app -6.6 Z
TEC n/a 8.1 L CDK2/cyclin E1 n/a 2.7 L MAP3K14 (NIK) n/a -0.5 L STK17A (DRAK1) n/a -6.6 L
KIT V654A n/a 8.1 L TESK2 n/a 2.7 L AKT3 (PKB gamma) Km app -0.5 Z JAK2 JH1 JH2 Km app -6.7 Z
ROS1 Km app 8.0 Z SPHK1 Km app 2.7 A MAP3K9 (MLK1) Km app -0.5 Z PRKACB (PRKAC beta) n/a -6.8 L
FGFR3 K650E Km app 7.9 Z AMPK A2/B1/G1 Km app 2.6 Z IKBKB (IKK beta) Km app -0.6 Z PDGFRA (PDGFR alpha) Km app -6.8 Z
RAF1 (cRAF) Y340D Y341D 100 7.9 Z DYRK3 Km app 2.6 Z CAMK2A (CaMKII alpha) Km app -0.6 Z NEK9 Km app -7.2 Z
PI4KA (PI4K alpha) 10 7.8 A CSNK1D (CK1 delta) Km app 2.6 Z PRKCB1 (PKC beta I) Km app -0.7 Z PDK1 Km app -7.3 Z
HIPK2 Km app 7.8 Z ACVR2A n/a 2.5 L TTK n/a -0.7 L RPS6KB1 (p70S6K) Km app -7.8 Z […]

T1 sequence (Q9H093 whole entry): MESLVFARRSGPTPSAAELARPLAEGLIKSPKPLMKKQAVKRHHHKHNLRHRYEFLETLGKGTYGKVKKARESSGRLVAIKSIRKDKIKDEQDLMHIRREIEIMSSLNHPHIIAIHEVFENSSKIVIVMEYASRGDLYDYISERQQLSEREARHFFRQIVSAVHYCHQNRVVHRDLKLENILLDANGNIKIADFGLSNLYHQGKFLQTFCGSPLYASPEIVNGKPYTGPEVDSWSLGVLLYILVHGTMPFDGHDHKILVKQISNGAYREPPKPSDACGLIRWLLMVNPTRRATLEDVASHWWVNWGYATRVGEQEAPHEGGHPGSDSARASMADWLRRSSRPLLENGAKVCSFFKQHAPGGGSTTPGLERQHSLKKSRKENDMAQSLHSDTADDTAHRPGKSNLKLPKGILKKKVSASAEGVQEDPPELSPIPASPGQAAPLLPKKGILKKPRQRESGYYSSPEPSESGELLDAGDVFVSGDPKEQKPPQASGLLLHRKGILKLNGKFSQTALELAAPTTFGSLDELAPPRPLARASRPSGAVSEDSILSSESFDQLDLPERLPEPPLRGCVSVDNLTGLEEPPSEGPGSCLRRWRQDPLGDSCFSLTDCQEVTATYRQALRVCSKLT

SMILES: CN(C(=O)CN1CCOCC1)c1ccc2sc3c(-c4cccc5c(=O)cc(N6CC7CCC(C6)O7)oc45)cccc3c2c1 [NU5455]
- % displacement: 1.0%
